The nature of this data set: Metabolic stability in human liver microsomes assessed as compound remaining after 1 hr. It is filed as ADME, Microsome. The conditions noted are these: read-out: Stability. (In general: Liver microsomes are vesicles of endoplasmic reticulum, rich in cytochrome P450 enzymes.)

The record followed here is ChEMBL document CHEMBL5223150, “Targeting the PI3K/AKT/mTOR Signaling Pathway in the Treatment of Human Diseases: Current Status, Trends, and Solutions” (J Med Chem, 2022).

Each structure is given as a SMILES string.

`O=C(N1CCN(c2ncnc3[nH]nc(Cl)c23)CC1)C1(c2ccc(Cl)c(Cl)c2)CCNCC1`: the remaining at 1 h came to 80%.
